{"source": "patent US20210346459A1", "about": "“Application of Dalargin for the prevention of VRIs and prevention of the development of complications during VRIs” (priority 2020, published 2021)", "key": {"[1]": {"test_system": "influenza virus A/California/04/2009", "type": "in vivo, mice"}, "[2]": {"details": "in vivo; cited from earlier work"}, "[3]": {"details": "Group 4: nasally once a day 0.2 mg/kg, concentration 0.08%"}, "[4]": {"details": "Group 4: nasally once a day 0.2 mg/kg, concentration 0.08%, 30 animals"}, "[5]": {"details": "Group 5: nasally and posterior pharyngeal wall (PS) once daily 0.5 mg/kg, concentration 0.1%"}, "[6]": {"details": "Group 5: nasally and posterior pharyngeal wall (PS) once daily 0.5 mg/kg, concentration 0.1%, 30 animals"}, "[7]": {"details": "Group 6: inhalation of 1% solution 40 min once a day, 0.5 mg/kg"}, "[8]": {"details": "Group 6: inhalation of 1% solution 40 min once a day, 0.5 mg/kg, 30 animals"}, "[9]": {"details": "Group 7: inhalation of 3% solution 45 min once a day, 1.74 mg/kg"}, "[10]": {"details": "Group 7: inhalation of 3% solution 45 min once a day, 1.74 mg/kg, 30 animals"}, "[11]": {"details": "Group 9: inhalation of 3% solution 45 min twice a day, prophylactic only"}, "[12]": {"details": "Group 9: inhalation of 3% solution 45 min twice a day, prophylactic only, 30 animals"}, "[13]": {"details": "Group 10: nasally + pharyngeal spray (PS) 0.5 mg/kg once a day, prophylactic only"}, "[14]": {"details": "Group 10: nasally + pharyngeal spray (PS) 0.5 mg/kg once a day, prophylactic only, 30 animals"}}, "note": "Like-named read-outs stand apart in the source and are kept apart here. Marks after values point to notes of the source that are not given here. Square brackets hold non-standard residues; d marks the D form. Peptide text beside a SMILES is read from it."}
{"smiles": "CC(C)C[C@H](NC(=O)[C@H](Cc1ccccc1)NC(=O)CNC(=O)[C@@H](C)NC(=O)[C@@H](N)Cc1ccc(O)cc1)C(=O)N[C@@H](CCCNC(=N)N)C(=O)O", "note": "[Dalargin, tyrosyl-D-alanyl-glycyl-phenylalanyl-leucyl-arginine diacetate] (H-Y[dA]GFLR-OH)", "values": [{"measurement": "Mortality, %", "setting": "[1]; [3]", "value": 56.67, "unit": "%"}, {"measurement": "Protective index, %", "setting": "[1]; [3]", "value": 41.38, "unit": "%"}, {"measurement": "Mortality by day 5", "setting": "[1]; [4]", "value": 2}, {"measurement": "Mortality by day 6", "setting": "[1]; [4]", "value": 4}, {"measurement": "Mortality by day 7", "setting": "[1]; [4]", "value": 9}, {"measurement": "Mortality by day 9", "setting": "[1]; [4]", "value": 1}, {"measurement": "Mortality by day 11", "setting": "[1]; [4]", "value": 1}, {"measurement": "Residue", "setting": "[1]; [4]", "value": 13}, {"measurement": "Mortality, %", "setting": "[1]; [5]", "value": 40.00, "unit": "%"}, {"measurement": "Protective index, %", "setting": "[1]; [5]", "value": 58.62, "unit": "%"}, {"measurement": "Mortality by day 6", "setting": "[1]; [6]", "value": 1}, {"measurement": "Mortality by day 7", "setting": "[1]; [6]", "value": 2}, {"measurement": "Mortality by day 8", "setting": "[1]; [6]", "value": 3}, {"measurement": "Mortality by day 9", "setting": "[1]; [6]", "value": 5}, {"measurement": "Mortality by day 10", "setting": "[1]; [6]", "value": 1}, {"measurement": "Residue", "setting": "[1]; [6]", "value": 18}, {"measurement": "Mortality, %", "setting": "[1]; [7]", "value": 6.67, "unit": "%**"}, {"measurement": "Protective index, %", "setting": "[1]; [7]", "value": 93.10, "unit": "%"}, {"measurement": "Mortality by day 7", "setting": "[1]; [8]", "value": 1}, {"measurement": "Mortality by day 8", "setting": "[1]; [8]", "value": 1}, {"measurement": "Residue", "setting": "[1]; [8]", "value": 28}, {"measurement": "Mortality, %", "setting": "[1]; [9]", "value": 10.00, "unit": "%**"}, {"measurement": "Protective index, %", "setting": "[1]; [9]", "value": 89.66, "unit": "%"}, {"measurement": "Mortality by day 7", "setting": "[1]; [10]", "value": 1}, {"measurement": "Mortality by day 8", "setting": "[1]; [10]", "value": 1}, {"measurement": "Mortality by day 9", "setting": "[1]; [10]", "value": 1}, {"measurement": "Residue", "setting": "[1]; [10]", "value": 27}, {"measurement": "Mortality, %", "setting": "[1]; [11]", "value": 30.00, "unit": "%"}, {"measurement": "Protective index, %", "setting": "[1]; [11]", "value": 68.97, "unit": "%"}, {"measurement": "Mortality by day 6", "setting": "[1]; [12]", "value": 2}, {"measurement": "Mortality by day 7", "setting": "[1]; [12]", "value": 3}, {"measurement": "Mortality by day 8", "setting": "[1]; [12]", "value": 2}, {"measurement": "Mortality by day 9", "setting": "[1]; [12]", "value": 2}, {"measurement": "Residue", "setting": "[1]; [12]", "value": 21}, {"measurement": "Mortality, %", "setting": "[1]; [13]", "value": 46.67, "unit": "%"}, {"measurement": "Protective index, %", "setting": "[1]; [13]", "value": 51.72, "unit": "%"}, {"measurement": "Mortality by day 5", "setting": "[1]; [14]", "value": 2}, {"measurement": "Mortality by day 6", "setting": "[1]; [14]", "value": 4}, {"measurement": "Mortality by day 7", "setting": "[1]; [14]", "value": 2}, {"measurement": "Mortality by day 8", "setting": "[1]; [14]", "value": 3}, {"measurement": "Mortality by day 9", "setting": "[1]; [14]", "value": 2}, {"measurement": "Mortality by day 10", "setting": "[1]; [14]", "value": 1}, {"measurement": "Residue", "setting": "[1]; [14]", "value": 16}, {"measurement": "Efficacy compared with other antiviral drugs (Ingavirin, Arbidol)", "setting": "[1]; administered by inhalation, prevention of influenza pneumonia", "value": "superior to other antiviral drugs"}, {"measurement": "Protective effect against infection, share of animals", "setting": "[1]; preventive administration, depending on the route of administration", "value": "50-70%"}, {"measurement": "LD50", "setting": "[2]", "value": 2500, "unit": "mg/kg"}]}
